Data taken from patent publication US10597370B2, “2-(benzothiazol-2-yl)-2-cyano-acetamide derivatives and their use as endothelial lipase inhibitors” (BRISTOL-MYERS SQUIBB COMPANY, priority 2016, dated 2020).

Biological target: T1, Endothelial lipase (EL) (Homo sapiens, UniProt Q9Y5X9)
T1 construct: transformed by RAGE technology (Athersys) to overexpress endogenous EL; endogenous in cells; the conditioned medium served as the enzyme source
T1 sequence (Q9Y5X9 21-500): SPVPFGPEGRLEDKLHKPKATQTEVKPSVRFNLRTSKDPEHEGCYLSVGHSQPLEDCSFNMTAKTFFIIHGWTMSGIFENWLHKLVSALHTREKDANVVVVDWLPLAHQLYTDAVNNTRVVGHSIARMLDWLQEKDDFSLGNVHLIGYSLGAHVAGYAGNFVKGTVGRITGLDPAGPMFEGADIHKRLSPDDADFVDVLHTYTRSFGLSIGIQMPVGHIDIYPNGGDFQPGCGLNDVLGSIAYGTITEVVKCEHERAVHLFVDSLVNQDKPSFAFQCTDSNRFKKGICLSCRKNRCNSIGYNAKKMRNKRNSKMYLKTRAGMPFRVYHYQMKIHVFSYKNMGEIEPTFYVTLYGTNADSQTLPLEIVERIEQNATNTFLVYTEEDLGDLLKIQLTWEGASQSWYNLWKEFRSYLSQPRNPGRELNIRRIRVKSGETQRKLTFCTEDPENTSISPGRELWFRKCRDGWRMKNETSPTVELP
Experiment: Endothelial lipase (EL) enzymatic assay with fluorescent substrate A10070 in DMPG vesicles
Format: biochemical
Conditions: conditioned media from HT-1080 cells overexpressing endogenous EL; 20 min preincubation at 37° C.
Protocol: Endothelial lipase activity was measured using a fluorescent substrate, A10070, (Invitrogen, CA) doped into an artificial vesicle containing DMPG (Avanti Polar Lipids) as the excipient. Vesicles were prepared by combining 285 μL of 1 mM DMPG in a 1:1 mixture of MeOH and CHCl3 with 15 μL of 1 mM A10070 in a 1:1 mixture of MeOH and CHCl3. The mixture was dried under nitrogen and resuspended in 150 μL of 50 mM HEPES pH 8.0 buffer containing 100 mM NaCl and 0.2 mM EDTA. The sample was allowed to sit at rt for 15 min and then was sonicated 3×4 mins on ice with a Branson Sonicator using duty cycle 1. This preparation provides vesicles with a mole fraction of 0.05 for the FRET substrate.
The enzymatic assay was measured using white, opaque 96-well half area plates. Each well contained 60 μL of assay buffer (50 mM HEPES pH 8.0, 50 mM NaCl and 1 mM CaCl2) and 2 ul of a DMSO solution containing compound of interest. Conditioned media obtained from HT-1080 cells, which were transformed by RAGE technology (Athersys) to overexpress endogenous EL, was added and the reaction was allowed to incubate for 20 min at 37° C. with gentle agitation. The reaction was started by the addition of 20 μL of a 1:4 dilution of vesicles. The final total reaction volume was 100 μL. The reaction rates were measured on a Gemini plate reader with an excitation wavelength of 488 nm and an emission of 530 nm. Readings were taken every 20 seconds for 10 min with agitation between each reading. The slope of the linear portion of the readout was used to calculate the rate of the reaction.

Row | IC50 [nM] | SMILES
1 | < 1 | N#CC(C(=O)NCC(=O)NC1CC1)c1nc2cc(-c3ccc(C(N)=O)cc3)c(F)cc2s1 (centres unmarked) [Example 28, 4-{2-[cyano ({[(cyclopropyl-carbamoyl)methyl]carbamoyl})methyl]-6-fluoro-1,3-benzothiazol-5-yl}benzamide]
2 | 1 | CN1CCN(C(=O)c2cccc(-c3cc4nc(C(C#N)C(=O)NCC(=O)NC5CC5)sc4cc3F)c2)CC1 (centres unmarked) [Example 29, 2-cyano-N-[(cyclopropyl-carbamoyl)methyl]-2-{6-fluoro-5-[3-(4-methylpiperazine-1-carbonyl)phenyl]-1,3-benzothiazol-2-yl}acetamide]
